# Laboratory results from patent publication US4001428A, “Cyclopropane derivatives and use thereof as cell membrane mobility agents” (Polymer Sciences Corporation, priority 1974, dated 1977).
# Experiments:
# neurotransmitter release = test: Neurotransmitter release from cells; assay type: cell-based
# Source text: Many intracellular agents are released from cells at rates which are below that desirable for optimum bilogical activity. […] For example, the use of the membrane mobility agents of the invention on brain tissue would lead to more efficient response to pharmacologically-active compounds and stimuli (such as electrical stimuli) on such brain tissue.
# hen red blood cells = test: Fusion of hen red blood cells; assay type: cell-based; conditions: 0.125 to 0.5 μl/cc of cell suspension, 37° C
# Method: (§1) Blood from the brachial vein of adult hens was mixed with heparin (as anticoagulant), centrifuged and the buffy coat removed. The erythrocytes were washed twice with 150 mM NaCl and once with buffer containing 76 mM sodium acetate, 70 mM NaCl, 1 mM CaCl2 and 100 mg/cc Dextran (MW 70,000) Pharmacia, Uppsala, Sweden (pH 5.7). The buffer is similar to but simpler than that used in a similar procedure by Lucy et al. The cells were resuspended in the same buffer and mixed with an equal volume of a suspension of the mobility agent A2 C dispersed in 150 mM NaCl by sonication. […] The final concentrations of A2 C used ranged between 0.06μl to 0.5 μl/cc containing 2-3 × 10^8 cells, 0.5 mM CaCl2, 38 mM sodium acetate, 110 mM NaCl and dextran (50 mg/cc). Cell suspensions were incubated at the desired temperature, mixed gently every 5 - 15 minutes and aliquots removed at intervals for viewing and photography at room temperature.
# mastocytoma = test: Agglutination of mastocytoma cells by wheat germ agglutinin and cap formation; assay type: cell-based
# Source text: Some malignant cells, like mastocytoma, agglutinate in the presence of wheat germ agglutinin.
# [1] = Retained activity of sonicated suspension; assay type: physicochemical; conditions: dispersed in 150 mM NaCl by sonication, ca. 2 min
# Method: as §1
# rabbit lymphocytes = test: Cap formation on lymphocytes treated with fluorescent antibody (membrane mobility); assay type: cell-based
# Method: Cap formation was followed on rabbit lymphocytes preincubated for various periods of time with one of the compounds, then treated with fluorescent antibody. At least 20 minutes preincubation with the aqueous dispersion of agent A2 C were required to produce a change in the observed rate from that of the control and between 1 and 2 h incubation was required for maximum response. A 1-h period was utilized in most experiments.
# FIG. 2 illustrates the rate of cap formation in lymphocytes treated with A2 C. In each of these experiments rabbit blood was anticoagulated with heparin (200 I.U./cm^3) and diluted with NaCl-phosphate buffer, pH 7.3 (137 mM NaCl-1.8 mM KH2 PO4 -8.2 mM Na2 HPO4) to 40% of original volume. Diluted blood was layered over sodium metrizoate (Nyegaard, Oslo, Norway)-Ficoll (Pharmacia, Uppsala, Sweden) mixture (containing 6.3% Ficoll and 10% sodium metrizoate), and centrifuged for 30 min. at 400 g at 25° C. Cells collected from the interphase contained over 80% lymphocytes. Cells were centrifuged, washed 3 times in buffer containing albumin and resuspended in the same or A2 C buffer. (A2 C was suspended in buffer (with Vortex) and albumin added). Final concentrations: lymphocytes 10^7 cells/cm^3.A2 C 0.02-0.2 μl/cm^3, 0.2% albumin, 5 mM glucose. Usual sample volume: 0.2 cm^3. The cell suspension was incubated at 22° or 24° C for 60 min. […] Expt I: 0.1 1 A 2 C per cm^3; (log concn -3.7); temp. 22 C. Expt II: 0.02 and 0.2 A2 C per cm^3; temp. 24° C. Expt III: 0.2 A2 C per cm^3; temp. 24° C.
# lymphocytes = test: Viability/cytotoxicity of lymphocytes, dye-exclusion test with trypan blue; assay type: cell-based; conditions: 60 minutes incubation, FIG. 1
# Method: The viability of the cells thus incubated was evaluated by the dye-exclusion test, using trypan blue.
# glutathione = conditions: within cells; cited from earlier work
smiles,measurement,setting,value
"CCCCCCCCC1CC1CCCCCCCC(=O)OCCOCCOC (stereo not shown) [A2 C, 2-(2-methoxy)-ethoxyethyl 8-(2-n-octylcyclopropyl octanoate]",neurotransmitter release,neurotransmitter release,augmented by a small factor
same,extent of erythrocytes eventually involved in fusion,hen red blood cells,most of the erythrocytes
same,"fusion of erythrocytes, degree of fusion",hen red blood cells,"increasing degrees of fusion, starting with binucleated, trinucleated and tetranucleated cells and proceeding to multi-nucleated cells"
same,rounding and swelling of the cells,hen red blood cells,rounding and swelling of the cells
same,cap formation on mastocytoma cells,mastocytoma,cause caps to form
same,extent of agglutination,mastocytoma; wheat germ agglutinin,diminish the extent of agglutination
same,activity of sonicated suspension over time,[1],remains active for several hours
same,"rate of cap formation in treated cells, increase over controls","rabbit lymphocytes; 0.02-0.2 μl/cm^3, 60 min incubation at 22° or 24° C, FIG. 2",≤ 50%
same,"effect of inherent ""high"" or ""low"" capacity for cap formation on the effects of the agent",rabbit lymphocytes; FIG. 2,does not alter the effects produced by the mobility agent
same,"initial state of treated cells, extrapolation to zero cap formation time",rabbit lymphocytes; FIG. 2,"might be initially more ""prepared"" to form caps than the control cells"
same,preincubation time required to produce a change in the observed rate of cap formation from that of control,"rabbit lymphocytes; aqueous dispersion of agent, rabbit lymphocytes",At least 20 minutes
same,cytotoxicity on lymphocytes relative to concentration affecting mobility,lymphocytes,toxic at concentrations considerably above that at which maximum effect on mobility was observed
"CCCCCCCCC1CC1CCCCCCCCOCCOCCOC (stereo not shown) [A2 CE, 2-(2-methoxy)-ethoxyethyl 8-(2-n-octylcyclopropyl)-n-octyl ether]",effect on cap formation / effectiveness as membrane mobility agent,"rabbit lymphocytes; standard incubation period, FIGS. 3 and 4",less than the ester A1 C in effect
"CCCCCCCCCCCCCCCCCC(=O)OCCOCCOC [A2 S, 2-(2-methoxy)-ethoxyethyl octadecanoate, reference compound]",membrane mobility activity (active/inactive),rabbit lymphocytes; classification of compounds of Table I,inactive
"CCCCCCCCC1CC1CCCCCCCC(=O)OCCOCCOCCOC (stereo not shown) [A3 C, 2-[2-(2-methoxy)-ethoxy]ethoxyethyl 8-(2-n-octycyclopropyl)-octanoate]",cytotoxicity on lymphocytes relative to concentration affecting mobility,lymphocytes,toxicity with amounts close to that at which an effect on mobility was seen
"CN1CCN(C(=O)N=NC(=O)N2CCN(C)CC2)CC1 [DIP, diazene dicarboxylic acid bis(N'-methylpiperazide)]",oxidation of intracellular glutathione,glutathione,oxidizes the glutathione within cells to glutathione disulfide
